According to patent publication US10941158B2, “Pyrazole ACC inhibitors and uses thereof” (Gilead Apollo, LLC, priority 2015, dated 2021):
Converted amounts (≈) assume the structure as drawn. Read-outs that look alike come from different tables or passages of the source.

What was measured:
Botrtyis cinerea (Bc) = assay: Growth inhibition assay of fungal pathogens; assay type: cell-based; conditions: 48 h, read-out: Concentration at 90% Inhibition Bc
Procedure, shortened: (§1)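 Percent growth inhibition was derived from 48 h OD600 and visual scores relative to 2% DMSO, with blank background subtraction. Fungi were grown from spores in 17% V8 liquid medium, R. solani from 1.5 mm plugs in ¼ PDB, with compound at final 50/10/2 or 2/0.4/0.08 ppm.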

[1] = test system: Fusarium moniliforme (Fm); assay: Growth inhibition assay of fungal pathogens; assay type: cell-based; conditions: for IC90: Fusarium verticillioides, 48 h, read-out: Concentration at 90% Inhibition Fm
Procedure, shortened: as §1

Septoria tritici (St) = assay: Growth inhibition assay of fungal pathogens; assay type: cell-based; conditions: for IC90: Zymoseptoria tritici, read-out: Concentration at 90% Inhibition St
Procedure, shortened: (§2)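 Liquid-culture assay in which test compounds are applied at three final concentrations (50, 10, 2 ppm or 2, 0.4, 0.08 ppm). Inoculum levels follow 48 h growth curves for each fungus. Growth is monitored by OD600 and by eye, and the 48 h values give % inhibition against DMSO.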

[2] = test system: Phytophthora capsici (Pc); assay: Growth inhibition assay of fungal pathogens; assay type: cell-based; conditions: for IC90: Phytophthora capsici, read-out: Concentration at 90% Inhibition Pc
Procedure, shortened: as §2

Rhizoctonia solani (Rs) = assay: Growth inhibition assay of fungal pathogens; assay type: cell-based; conditions: 48 h, read-out: Concentration at 90% Inhibition Rs
Procedure, shortened: as §1

[3] = test system: Collectotrichum graminicola (Cg); assay: Growth inhibition assay of fungal pathogens; assay type: cell-based; conditions: 48 h, read-out: Concentration at 90% Inhibition Cg
Procedure, shortened: as §2

[4] = test system: Fusarium virguliforme (Fv); assay: Growth inhibition assay of fungal pathogens; assay type: cell-based; conditions: 48 h
Procedure, shortened: as §2

Diplodia maydis (Dm) = assay: Growth inhibition assay of fungal pathogens; assay type: cell-based; conditions: Stenocarpella maydis, 48 h, read-out: Concentration at 90% Inhibition Dm
Procedure, shortened: as §1

human (hACC2) ACC2 = human (hACC2) ACC2 (Homo sapiens, UniProt O00763); assay: In vitro Acetyl-CoA Carboxylase (ACC) inhibition assay (ADP-Glo), hACC2; assay type: biochemical
Description: The detailed procedure is as follows. […] 10 μL ADP glo reagent was added. […] 20 μL kinase detection reagent was added.
“NA” stands for “not assayed.”

[5] = test system: C. parapsilosis ATCC 22019; assay: Anti-Fungal (Candida) Activity Assay, broth microtiter MIC; assay type: cell-based; conditions: Lodderomyces parapsilosis, read-out: MIC C. parapsilosis ATCC 22019
Procedure, shortened: (§3)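 In CLSI M27-A3 microtiter plates, yeast from overnight agar culture is inoculated in RPMI 1640–MOPS at a standard-curve density. The MIC is the endpoint scored visually against growth control at 48 h.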

C. albicans ATCC 90028 = assay: as above; assay type: cell-based; conditions: read-out: MIC C. albicans ATCC 90028
Procedure, shortened: as §3

C. krusei ATCC 6258 = assay: as above; assay type: cell-based; conditions: Pichia kudriavzevii, read-out: MIC C. krusei ATCC 6258
Procedure, shortened: as §3

fungal (fACC2) ACC2 = fungal (fACC2) ACC2 (UniProt Q00955); conditions: read-out: fACC2 IC50; fungal ACC2, ADP-Glo
[6] = Table 4a, 48 hours, read-out: Concentration at 90% Inhibition Fv
[7] = Table 4b, 48 hours, read-out: Concentration at 90% Inhibition Fv
[8] = ATCC22019, 3 replicates, MIC recorded at 48 h
[9] = ATCC90028, 3 replicates, MIC recorded at 48 h
[10] = ATCC6258, 3 replicates, MIC recorded at 48 h

fungal (fACC2) ACC2, sequence (Q00955 whole entry): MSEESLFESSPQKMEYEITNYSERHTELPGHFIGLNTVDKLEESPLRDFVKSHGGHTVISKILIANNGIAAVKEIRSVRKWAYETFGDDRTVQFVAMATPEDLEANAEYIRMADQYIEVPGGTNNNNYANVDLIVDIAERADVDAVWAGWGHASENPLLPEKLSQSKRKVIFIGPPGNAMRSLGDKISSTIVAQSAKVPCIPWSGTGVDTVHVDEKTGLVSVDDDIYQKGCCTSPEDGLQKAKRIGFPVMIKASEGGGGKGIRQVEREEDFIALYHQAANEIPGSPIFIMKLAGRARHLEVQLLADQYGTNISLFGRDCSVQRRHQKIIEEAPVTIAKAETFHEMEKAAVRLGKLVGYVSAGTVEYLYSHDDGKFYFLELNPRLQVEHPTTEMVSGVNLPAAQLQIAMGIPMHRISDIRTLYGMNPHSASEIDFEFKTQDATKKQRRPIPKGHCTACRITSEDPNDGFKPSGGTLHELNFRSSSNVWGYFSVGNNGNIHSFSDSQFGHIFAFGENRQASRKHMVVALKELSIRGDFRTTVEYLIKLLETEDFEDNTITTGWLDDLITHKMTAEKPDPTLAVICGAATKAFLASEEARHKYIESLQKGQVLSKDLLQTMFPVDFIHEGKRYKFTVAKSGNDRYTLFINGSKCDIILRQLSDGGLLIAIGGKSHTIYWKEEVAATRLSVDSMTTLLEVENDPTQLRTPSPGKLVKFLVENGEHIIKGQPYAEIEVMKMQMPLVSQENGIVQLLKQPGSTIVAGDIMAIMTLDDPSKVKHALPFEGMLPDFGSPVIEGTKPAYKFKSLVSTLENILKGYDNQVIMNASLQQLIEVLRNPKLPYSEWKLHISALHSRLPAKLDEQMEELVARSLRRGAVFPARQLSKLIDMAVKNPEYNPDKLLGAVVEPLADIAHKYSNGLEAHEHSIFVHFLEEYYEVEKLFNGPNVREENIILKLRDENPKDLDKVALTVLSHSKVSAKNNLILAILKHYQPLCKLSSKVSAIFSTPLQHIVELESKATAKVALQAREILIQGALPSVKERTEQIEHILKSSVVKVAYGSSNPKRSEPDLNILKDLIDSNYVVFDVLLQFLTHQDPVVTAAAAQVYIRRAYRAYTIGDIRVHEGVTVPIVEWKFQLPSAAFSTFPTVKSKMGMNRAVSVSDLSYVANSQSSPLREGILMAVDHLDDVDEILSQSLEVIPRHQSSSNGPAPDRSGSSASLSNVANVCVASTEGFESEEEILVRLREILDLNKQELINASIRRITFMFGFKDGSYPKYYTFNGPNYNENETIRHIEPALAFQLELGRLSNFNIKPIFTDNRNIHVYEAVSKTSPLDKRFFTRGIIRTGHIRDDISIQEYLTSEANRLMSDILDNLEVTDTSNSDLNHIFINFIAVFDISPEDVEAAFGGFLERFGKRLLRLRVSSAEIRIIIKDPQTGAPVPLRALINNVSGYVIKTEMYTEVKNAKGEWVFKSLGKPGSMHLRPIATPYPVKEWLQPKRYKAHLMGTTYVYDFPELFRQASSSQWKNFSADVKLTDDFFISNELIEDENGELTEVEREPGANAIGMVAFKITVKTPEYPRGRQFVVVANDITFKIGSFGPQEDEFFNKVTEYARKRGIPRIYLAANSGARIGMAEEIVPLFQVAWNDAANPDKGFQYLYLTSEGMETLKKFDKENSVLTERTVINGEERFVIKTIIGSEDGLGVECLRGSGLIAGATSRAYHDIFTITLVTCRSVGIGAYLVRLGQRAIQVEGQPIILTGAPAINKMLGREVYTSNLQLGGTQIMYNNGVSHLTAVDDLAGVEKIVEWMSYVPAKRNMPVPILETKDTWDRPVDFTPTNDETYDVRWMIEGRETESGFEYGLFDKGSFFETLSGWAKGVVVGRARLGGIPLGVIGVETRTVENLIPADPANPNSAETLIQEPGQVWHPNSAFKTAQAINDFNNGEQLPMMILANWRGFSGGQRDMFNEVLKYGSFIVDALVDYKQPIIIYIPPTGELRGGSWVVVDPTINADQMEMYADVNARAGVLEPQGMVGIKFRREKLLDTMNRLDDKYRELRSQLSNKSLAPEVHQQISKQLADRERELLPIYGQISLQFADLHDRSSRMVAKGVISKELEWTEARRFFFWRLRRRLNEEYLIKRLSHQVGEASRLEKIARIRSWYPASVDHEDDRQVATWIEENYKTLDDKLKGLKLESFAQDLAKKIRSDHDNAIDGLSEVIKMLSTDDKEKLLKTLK
human (hACC2) ACC2, sequence (O00763 whole entry): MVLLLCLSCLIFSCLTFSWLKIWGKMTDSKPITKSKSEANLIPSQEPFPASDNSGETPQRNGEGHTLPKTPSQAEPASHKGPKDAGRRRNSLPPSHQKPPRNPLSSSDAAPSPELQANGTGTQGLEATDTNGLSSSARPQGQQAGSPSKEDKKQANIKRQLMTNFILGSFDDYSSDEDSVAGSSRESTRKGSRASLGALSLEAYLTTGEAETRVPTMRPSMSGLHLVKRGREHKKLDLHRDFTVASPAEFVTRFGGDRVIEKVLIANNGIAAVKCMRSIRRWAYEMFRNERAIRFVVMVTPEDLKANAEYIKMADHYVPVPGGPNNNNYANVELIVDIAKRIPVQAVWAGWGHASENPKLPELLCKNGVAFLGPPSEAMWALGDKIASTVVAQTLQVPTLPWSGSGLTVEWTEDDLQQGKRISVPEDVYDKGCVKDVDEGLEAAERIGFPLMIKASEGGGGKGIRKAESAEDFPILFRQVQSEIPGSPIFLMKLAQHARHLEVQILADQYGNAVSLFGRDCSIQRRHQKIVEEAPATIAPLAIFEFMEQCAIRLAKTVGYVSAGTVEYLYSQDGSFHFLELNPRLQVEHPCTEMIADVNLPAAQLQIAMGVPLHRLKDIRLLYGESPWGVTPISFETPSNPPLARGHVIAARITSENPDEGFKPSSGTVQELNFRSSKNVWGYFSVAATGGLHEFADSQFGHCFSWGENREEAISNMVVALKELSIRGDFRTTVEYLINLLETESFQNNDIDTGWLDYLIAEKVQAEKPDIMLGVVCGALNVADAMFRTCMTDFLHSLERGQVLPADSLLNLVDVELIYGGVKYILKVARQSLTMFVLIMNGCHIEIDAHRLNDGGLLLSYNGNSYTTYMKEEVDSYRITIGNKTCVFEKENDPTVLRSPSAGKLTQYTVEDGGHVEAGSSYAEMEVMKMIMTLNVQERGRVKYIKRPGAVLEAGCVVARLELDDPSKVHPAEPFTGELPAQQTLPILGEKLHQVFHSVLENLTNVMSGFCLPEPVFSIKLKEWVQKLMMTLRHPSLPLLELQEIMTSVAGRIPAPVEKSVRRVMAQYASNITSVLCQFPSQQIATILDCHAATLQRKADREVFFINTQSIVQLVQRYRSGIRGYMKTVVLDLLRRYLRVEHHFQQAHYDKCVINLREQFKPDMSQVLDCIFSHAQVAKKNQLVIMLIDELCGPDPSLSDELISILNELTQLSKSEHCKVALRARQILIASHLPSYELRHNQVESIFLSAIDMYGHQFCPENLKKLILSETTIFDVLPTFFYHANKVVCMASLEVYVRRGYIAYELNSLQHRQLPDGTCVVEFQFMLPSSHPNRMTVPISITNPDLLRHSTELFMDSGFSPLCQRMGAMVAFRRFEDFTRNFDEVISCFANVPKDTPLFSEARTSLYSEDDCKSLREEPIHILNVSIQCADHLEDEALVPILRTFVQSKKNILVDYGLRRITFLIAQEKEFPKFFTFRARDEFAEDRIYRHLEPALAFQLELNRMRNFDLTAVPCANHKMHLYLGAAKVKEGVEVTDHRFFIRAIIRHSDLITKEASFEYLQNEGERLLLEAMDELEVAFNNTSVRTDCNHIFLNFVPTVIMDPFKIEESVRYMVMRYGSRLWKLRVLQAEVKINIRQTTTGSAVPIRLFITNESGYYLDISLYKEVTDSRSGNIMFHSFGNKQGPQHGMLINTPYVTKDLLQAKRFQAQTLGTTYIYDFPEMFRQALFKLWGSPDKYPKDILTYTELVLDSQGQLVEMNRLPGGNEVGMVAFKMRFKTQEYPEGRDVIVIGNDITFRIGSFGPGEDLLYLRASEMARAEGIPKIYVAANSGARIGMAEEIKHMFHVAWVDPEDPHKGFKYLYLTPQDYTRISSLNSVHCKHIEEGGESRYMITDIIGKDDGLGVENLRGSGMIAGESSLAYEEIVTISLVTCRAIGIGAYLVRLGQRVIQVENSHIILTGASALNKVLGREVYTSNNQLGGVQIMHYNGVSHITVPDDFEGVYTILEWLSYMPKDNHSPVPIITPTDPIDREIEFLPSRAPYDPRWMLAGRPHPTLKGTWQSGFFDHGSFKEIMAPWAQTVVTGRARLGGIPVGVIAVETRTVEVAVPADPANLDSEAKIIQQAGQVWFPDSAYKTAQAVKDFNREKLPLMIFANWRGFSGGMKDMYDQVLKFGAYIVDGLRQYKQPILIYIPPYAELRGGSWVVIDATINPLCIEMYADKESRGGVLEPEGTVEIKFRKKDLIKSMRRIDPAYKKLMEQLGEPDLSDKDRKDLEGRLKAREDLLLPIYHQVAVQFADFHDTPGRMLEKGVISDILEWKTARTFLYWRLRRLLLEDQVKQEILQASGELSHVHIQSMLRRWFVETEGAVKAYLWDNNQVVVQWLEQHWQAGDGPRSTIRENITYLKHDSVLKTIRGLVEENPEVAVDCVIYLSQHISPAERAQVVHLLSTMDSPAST

Row | Compound | IC90 (Botrtyis cinerea (Bc); Table 4a) [µg/mL] | IC90 (Botrtyis cinerea (Bc); Table 4b) [µg/mL] | IC90 ([1]; Table 4a, 48 hours) [µg/mL] | Concentration at 90% Inhibition St (Septoria tritici (St); Table 4b, 48 hours) | IC90 (Septoria tritici (St); Table 4a, 48 hours) [µg/mL] | IC90 ([2]; Table 4a, 48 hours) [µg/mL] | Concentration at 90% Inhibition Pc ([2]; Table 4b, 48 hours) | IC90 (Rhizoctonia solani (Rs); Table 4a) [µg/mL] | IC90 (Rhizoctonia solani (Rs); Table 4b) [µg/mL] | IC90 ([3]; Table 4a) [µg/mL] | IC90 ([3]; Table 4b) [µg/mL] | IC90 [4, 6] [µg/mL] | IC90 [4, 7] [µg/mL] | IC90 (Diplodia maydis (Dm); Table 4a) [µg/mL] | IC90 (Diplodia maydis (Dm); Table 4b) [µg/mL] | IC50 (human (hACC2) ACC2) [nM] | MIC [5, 8] [µg/mL] | MIC (C. albicans ATCC 90028; [9]) [µg/mL] | MIC (C. krusei ATCC 6258; [10]) [µg/mL] | IC50 (fungal (fACC2) ACC2) [nM] | further results
1 | COc1ccccc1[C@H](Cn1c(=O)n(C(C)(C)C(=O)N2CCCC2)c(=O)c2c(C)c(-n3cccn3)sc21)OC(C)C [Compound I-18, (R)-1-(2-isopropoxy-2-(2-methoxyphenyl)ethyl)-5-methyl-3-(2-methyl-1-oxo-2-(pyrrolidin-1-yl)propan-2-yl)-6-(H-pyrazol-1-yl)thieno[2,3-d]pyrimidine-2,4(1H,3H)-dione] | 2 (≈ 3.45 µM) | 2 (≈ 3.45 µM) | 0.08 (≈ 0.138 µM) | D (“D” provided a compound concentration of >50 ppm at 90% inhibition of fungal pathogens) | > 50 | > 50 | D (“D” provided a compound concentration of >50 ppm at 90% inhibition of fungal pathogens) | 0.4 (≈ 0.69 µM) | 0.4 (≈ 0.69 µM) | 2 (≈ 3.45 µM) | 2 (≈ 3.45 µM) | 0.4 (≈ 0.69 µM) | 0.4 (≈ 0.69 µM) | 2 (≈ 3.45 µM) | 2 (≈ 3.45 µM) | 3 to 10 | 2.1 to 4 (≈ 3.62 to 6.9 µM) | 1.1 to 2 (≈ 1.9 to 3.45 µM) | 2.1 to 4 (≈ 3.62 to 6.9 µM) | 0.6 to 3 | IC90 ([1]; Table 4b, 48 hours): 0.08 µg/mL (≈ 0.138 µM)
2 | COc1ccc(F)cc1[C@H](Cn1c(=O)n(C(C)(C)C(=O)N2CCCC2)c(=O)c2c(C)c(-n3cccn3)sc21)OC(C)C [Compound I-24, (R)-1-(2-(5-fluoro-2-methoxyphenyl)-2-isopropoxyethyl)-5-methyl-3-(2-methyl-1-oxo-1-(pyrrolidin-1-yl)propan-2-yl)-6-(1H-pyrazol-1-yl)thieno[2,3-d]pyrimidine-2,4(1H,3H)-dione] | 0.4 (≈ 0.669 µM) | 0.4 (≈ 0.669 µM) | 0.08 (≈ 0.134 µM) | D (“D” provided a compound concentration of >50 ppm at 90% inhibition of fungal pathogens) | > 50 | > 50 | D (“D” provided a compound concentration of >50 ppm at 90% inhibition of fungal pathogens) | 0.4 (≈ 0.669 µM) | 0.4 (≈ 0.669 µM) | 0.4 (≈ 0.669 µM) | 0.4 (≈ 0.669 µM) | 0.4 (≈ 0.669 µM) | 0.4 (≈ 0.669 µM) | 2 (≈ 3.35 µM) | 2 (≈ 3.35 µM) | 3 to 10 | > 4.1 | > 4.1 | 2.1 to 4 (≈ 3.51 to 6.69 µM) | 0.6 to 3 | Concentration at 90% Inhibition Fm ([1]; Table 4b, 48 hours): A A
3 | COc1ccc(F)cc1[C@H](Cn1c(=O)n(C(C)(C)C(=O)NC(C)C)c(=O)c2c(C)c(-n3cccn3)sc21)OC1CCC(=O)CC1 [Compound I-26, (R)-2-(1-(2-(5-fluoro-2-methoxyphenyl)-2-((4-oxocyclo-hexyl)oxy)ethyl)-5-methyl-2,4-dioxo-6-(1H-pyrazol-1-yl)-1,4-dihydro-thieno[2,3-d]pyrimidin-3(2H)-yl)-N-isopropyl-2-methylpropanamide] | 0.4 (≈ 0.625 µM) | 0.4 (≈ 0.625 µM) |  |  |  |  |  | 2 (≈ 3.13 µM) | 2 (≈ 3.13 µM) | > 50 | 10 (≈ 15.6 µM) |  |  | 2 (≈ 3.13 µM) | 2 (≈ 3.13 µM) | 3 to 10 |  |  |  | 0.6 to 3 | IC90 [1]: 0.08 µg/mL (≈ 0.125 µM); Concentration at 90% Inhibition Fm ([1]; Table 4a, 48 hours): A A; IC90 (Septoria tritici (St); 48 h, Table 4a): > 50 µg/mL; IC90 (Septoria tritici (St); 48 h, Table 4b): > 50 µg/mL; IC90 ([2]; 48 h, Table 4a): > 50 µg/mL; IC90 ([2]; 48 h, Table 4b): > 50 µg/mL; IC90 ([4]; read-out: Concentration at 90% Inhibition Fv, Table 4a, 48 hours): 2 µg/mL (≈ 3.13 µM); IC90 ([4]; read-out: Concentration at 90% Inhibition Fv, Table 4b, 48 hours): 2 µg/mL (≈ 3.13 µM); MIC ([5]; ATCC22019, 48 h): 1.1 to 2 µg/mL (≈ 1.72 to 3.13 µM); MIC (C. albicans ATCC 90028; ATCC90028, 48 h): 1.1 to 2 µg/mL (≈ 1.72 to 3.13 µM); MIC (C. krusei ATCC 6258; ATCC6258, 48 h): 0.25 to 1 µg/mL (≈ 0.391 to 1.56 µM)
